Measured values reported in the NIST ThermoML archive (doi:10.1021/je1009976).
± gives the expanded uncertainty stated by the source.

Test: xn = mol fraction of the nth substance listed
Conditions: 101 kPa, Liquid; for mass density: Pycnometric method; for viscosity: Capillary tube (Ostwald / Ubbelohde) method

OCCOCCO [diethylene glycol] + O
Conditions	mass density, 313.15 K [kg/m3]	mass density, 318.15 K [kg/m3]	mass density, 323.15 K [kg/m3]	viscosity, 318.15 K [mPa·s]	viscosity, 323.15 K [mPa·s]
x1 = 0.05006	1023.67 ± 0.49	1021.08 ± 0.51	1018.36 ± 0.9	1.091 ± 0.4	0.985 ± 0.4
x1 = 0.1016	1046.02 ± 0.54	1043.03 ± 0.55	1039.94 ± 0.79	1.729 ± 0.4	1.535 ± 0.4
x1 = 0.1512	1062.04 ± 0.58	1058.72 ± 0.6	1055.2 ± 0.86	2.459 ± 0.4	2.161 ± 0.4
x1 = 0.2012	1071.77 ± 0.61	1068.24 ± 0.63	1064.5 ± 0.68	3.286 ± 0.4	2.846 ± 0.4
x1 = 0.2477	1079.42 ± 0.62	1075.76 ± 0.63	1072.18 ± 0.74	4.052 ± 0.4	3.506 ± 0.4
x1 = 0.298	1084.97 ± 0.61	1081.58 ± 0.65	1077.47 ± 0.77	4.962 ± 0.4	4.252 ± 0.4
x1 = 0.3505	1088.68 ± 0.65	1084.97 ± 0.65	1081.16 ± 0.72	5.768 ± 0.4	4.929 ± 0.4
x1 = 0.4483	1093.68 ± 0.67	1089.91 ± 0.67	1086.1 ± 0.75	7.148 ± 0.4	6.071 ± 0.4
x1 = 0.5421	1096.37 ± 0.65	1092.91 ± 0.67	1088.98 ± 0.73	8.478 ± 0.41	7.143 ± 0.41
x1 = 0.6518	1098.97 ± 0.67	1095.29 ± 0.7	1091.34 ± 0.73	9.672 ± 0.41	8.114 ± 0.41
x1 = 0.7525	1100.25 ± 0.7	1096.58 ± 0.68	1093.18 ± 0.7	10.65 ± 0.41	8.937 ± 0.41
x1 = 0.7864	1100.56 ± 0.7	1096.89 ± 0.7	1093.37 ± 0.69	10.96 ± 0.41	9.19 ± 0.41
x1 = 0.8499	1101.32 ± 0.71	1097.62 ± 0.72	1093.91 ± 0.74	11.42 ± 0.41	9.461 ± 0.41
x1 = 0.9005	1101.55 ± 0.72	1097.87 ± 0.73	1094.19 ± 0.74	11.69 ± 0.41	9.799 ± 0.41
x1 = 0.9503	1101.98 ± 0.74	1098.33 ± 0.75	1094.55 ± 0.76	11.92 ± 0.42	9.999 ± 0.41
x1 = 1	1102.11 ± 0.76	1098.35 ± 0.76	1094.94 ± 0.75	12.19 ± 0.42	10.19 ± 0.41
